Values quoted from earlier work as cited in patent publication US20040024036A1, “Pharmaceutical composition for transdermal delivery of befloxatone” (priority 2000, published 2004).

Key:
[1] = tested on: noradrenalin (NA) reuptake
[2] = target: T1, MAO-B (Homo sapiens, UniProt P27338); details: MAO-A versus MAO-B
T1 sequence (P27338 1-520): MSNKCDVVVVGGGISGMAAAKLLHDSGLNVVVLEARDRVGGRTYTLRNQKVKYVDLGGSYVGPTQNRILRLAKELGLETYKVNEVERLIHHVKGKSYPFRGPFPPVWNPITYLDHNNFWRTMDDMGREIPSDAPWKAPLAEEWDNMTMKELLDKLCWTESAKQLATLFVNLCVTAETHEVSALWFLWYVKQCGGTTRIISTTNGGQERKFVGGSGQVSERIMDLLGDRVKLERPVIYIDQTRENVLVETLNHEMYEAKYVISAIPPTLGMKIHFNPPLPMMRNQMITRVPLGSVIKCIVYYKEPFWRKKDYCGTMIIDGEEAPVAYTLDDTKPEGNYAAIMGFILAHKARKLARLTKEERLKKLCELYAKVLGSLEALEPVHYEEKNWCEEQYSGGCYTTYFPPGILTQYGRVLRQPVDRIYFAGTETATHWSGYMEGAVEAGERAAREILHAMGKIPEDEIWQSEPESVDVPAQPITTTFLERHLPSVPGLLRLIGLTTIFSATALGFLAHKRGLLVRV

[3] = tested on: dopamine (DA) reuptake
[4] = tested on: serotonin (5-HT) reuptake
[5] = target: T2, MAO-A (Homo sapiens, UniProt P21397); details: reversible inhibitor
T2 sequence (P21397 1-527): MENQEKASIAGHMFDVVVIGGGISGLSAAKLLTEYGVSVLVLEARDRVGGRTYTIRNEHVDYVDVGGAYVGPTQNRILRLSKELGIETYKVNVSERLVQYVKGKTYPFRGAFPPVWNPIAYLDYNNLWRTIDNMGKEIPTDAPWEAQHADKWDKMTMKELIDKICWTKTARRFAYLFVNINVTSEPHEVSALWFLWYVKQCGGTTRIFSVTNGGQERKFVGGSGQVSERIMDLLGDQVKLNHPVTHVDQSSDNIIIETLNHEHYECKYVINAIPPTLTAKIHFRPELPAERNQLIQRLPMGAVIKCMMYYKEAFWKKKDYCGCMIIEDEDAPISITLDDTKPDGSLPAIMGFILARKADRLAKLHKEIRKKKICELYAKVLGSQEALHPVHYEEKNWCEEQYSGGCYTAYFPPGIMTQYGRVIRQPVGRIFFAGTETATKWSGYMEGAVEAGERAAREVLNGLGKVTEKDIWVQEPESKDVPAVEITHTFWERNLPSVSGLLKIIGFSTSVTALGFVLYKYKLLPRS

SMILES: COC[C@H]1CN(c2ccc(OCC[C@@H](O)C(F)(F)F)cc2)C(=O)O1 [befloxatone]
- effect on noradrenalin (NA) reuptake [1]: does not affect
- selectivity toward the B isoform (MAO-B) [2]: very good selectivity
- effect on dopamine (DA) reuptake [3]: does not affect
- effect on serotonin (5-HT) reuptake [4]: does not affect
- affinity for the A isoform (MAO-A) [5]: very high affinity
